Results taken from publication PMC5374420, “In Search of Small Molecule Inhibitors Targeting the Flexible CK2 Subunit Interface” (Pharmaceuticals, 2017).
Where a SMILES comes first, the peptide text is derived from it. Bridges are numbered along the chain shown (N, C = ends).

Experiments:
[1] = target: T1, CK2α–CK2β interaction (Homo sapiens, UniProt P68400); assay: In vitro CK2α–CK2β interaction assay; type: binding; settings: read-out: inhibition of subunit interaction
T1 construct: made in house
T1 sequence (P68400 whole entry): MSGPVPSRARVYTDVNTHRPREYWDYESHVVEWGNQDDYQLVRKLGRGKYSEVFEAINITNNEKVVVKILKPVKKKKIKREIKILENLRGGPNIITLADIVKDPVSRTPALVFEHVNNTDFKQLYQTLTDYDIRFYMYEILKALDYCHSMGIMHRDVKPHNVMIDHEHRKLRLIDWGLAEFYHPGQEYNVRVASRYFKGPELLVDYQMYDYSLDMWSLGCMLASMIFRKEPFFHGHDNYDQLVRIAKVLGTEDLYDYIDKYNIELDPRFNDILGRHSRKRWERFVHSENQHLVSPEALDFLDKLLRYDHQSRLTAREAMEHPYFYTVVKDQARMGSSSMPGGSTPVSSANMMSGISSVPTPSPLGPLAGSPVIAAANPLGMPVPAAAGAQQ
Experimental: Figure 4 Inhibitory activity of a TAT-Pc analogue in vitro. (A) CK2 holoenzyme (100 nM) was incubated in the presence of increasing concentrations of TAT-Pc 13 for 15 min at 4 °C. CK2 activity was then determined with CK2β-dependent or independent peptide substrates; (B) [^35S]-labeled CK2α was incubated with biotinylated MBP-CK2β immobilized on streptavidin coated plates (preformed complex) in the absence (1) or presence (2) of TAT-Pc 13. Alternatively, [^35S]-labeled CK2α was incubated with TAT-Pc 13 (3) or random TAT-Pc 13 (4) and then with immobilized biotinylated MBP-CK2β. After washing, the amount of [^35S]-labeled CK2α remaining in the complex was determined by radioactivity counting. Representative data shown from two independent experiments. Results are presented as mean ± s.d. of triplicates.
The CK2α–CK2β interaction assay involved competition between plate-bound biotinylated MBP–CK2β and various cyclic peptides for binding to [^35S] methionine-labelled CK2α. The assay was performed as previously described in [15].

[2] = target: T2, CK2α/CK2β subunit interaction in MCF-10A cells (Homo sapiens, UniProt P68400); assay: In situ proximity ligation assay of CK2α and CK2β; type: cell-based; settings: 50 µM, 6 h, WT MCF-10A cells; positive control 4.8 ± 1.5 dots/cell
T2 construct: endogenous in cells; host or cells: MCF-10A (WT)
T2 sequence (P68400 whole entry): as above
Experimental: Figure 7 Uptake and cellular effects of TAT-Pc 13. (A) kinetic of TAMRA-TAT-Pc 13 uptake in MCF-10A cells; (B) WT or CK2β-depleted MCF-10A cells were incubated with 50 µM TAT or TAT-Pc 13 for 8 h and the expression of CK2 subunits was evaluated by Western blot; (C) anti-CK2β immunoprecipitates were prepared from WT MCF-10A cells incubated with 50 µM TAT or TAT-Pc 13 for 2 h. Presence of CK2 subunits in the corresponding immunoprecipitates was determined by Western blot; (D) in situ proximity ligation images of MCF-10A cells incubated with 50 µM TAT (a,b,d) or TAT-Pc 13 (c) for 6 h. WT cells were incubated with CK2α antibody alone (a) or CK2α and CK2β antibodies (b,c). […]
PLA is an antibody-based method representing a reliable readout of molecular proximity of two antigens located on two distinct proteins. […] The fluorescent signal from each pair of PLA probes confirms a close proximity and not simply subcellular colocalization and can then be detected and quantified as fluorescent spots in microscopic images of the cells. […] No signal was detected in CK2β-depleted cells (panel d).
In situ PLAs were performed using a Duolink kit (Olink Bioscience, Uppsala, Sweden) according to the manufacturer’s instructions with some modifications. […] Images were observed using a Zeiss Apotome microscope and analyzed using a Zen Pro imaging software (Zeiss, Oberkochen, Germany). […]

[3] = tested on: 786-0; assay: Cell death of cancerous cell line; type: cell-based

CC[C@H](C)[C@@H]1NC(=O)[C@H](CCCCN)NC(=O)[C@H](Cc2ccccc2)NC(=O)CNC(=O)[C@H](Cc2ccc(O)cc2)NC(=O)[C@H](CC(C)C)NC(=O)[C@H](CCCNC(=N)N)NC(=O)CNC(=O)CNC(=O)[C@@H](NC(=O)[C@H](CCC(N)=O)NC(=O)[C@@H]2CCCN2C(=O)[C@@H]2CCCN2C(=O)[C@H](CCCNC(=N)N)NC(=O)[C@H](CCCNC(=N)N)NC(=O)[C@H](CCCNC(=N)N)NC(=O)[C@H](CCC(N)=O)NC(=O)[C@H](CCCNC(=N)N)NC(=O)[C@H](CCCNC(=N)N)NC(=O)[C@H](CCCCN)NC(=O)[C@H](CCCCN)NC(=O)[C@H](CCCNC(=N)N)NC(=O)CN)CCCCNC(=O)CNC(=O)CNC(=O)[C@H](Cc2c[nH]cn2)NC1=O [TAT-Pc 13] (H-GRKKRRQRRRPPQKGGRLYGFKIHGG; lactam 14-C; N-terminus assumed)
inhibition at 50 µM [1]: 80%
number of CK2α/CK2β interaction dots [2]: 2.2 ± 1.1 dots/cell
induction of cell death [3]: induce cell death
